Assay results: patent US12398115B2, “Chrysophaentin analogs and use thereof” (Vanderbilt University, priority 2019, dated 2025)
In brackets after ≈: the same amount, converted by molar mass. Entries after “also recorded” stand apart in the source; their conditions may differ. Like-named read-outs stand apart in the source and are kept apart here.

Tests used:
[1] = tested on: B. subtilis (PY79 WT) peptidoglycan synthesis; assay: HADA (FDAA) incorporation microscopy assay, peptidoglycan synthesis; format: cell-based, Bacillus subtilis; conditions: for inhibition of peptidoglycan synthesis (FDAA incorporation): B. subtilis, FIGS. 7B and 7C
Description: HADA was synthesized according to the reported protocols. Exponentially growing B. subtilis (PY79 WT) cells for the experiments were prepared as described above. […] After a 5-minute incubation at 37° C., HADA stock solution (100 mM) was directly added to the cultures to a final concentration of 0.5 mM. The cultures were then incubated in a 37° C. shaker for 30 minutes. Cell fixation was then carried out by directly adding 0.7 ml 100% ethanol to the cultures, following 1-hour incubation on ice-bath. The fixed cells were collected using centrifuge (9000 g, 3 minutes), washed with 1×PBS twice, and then resuspended into 1×PBS. The cells were imaged using Nikon Ti-E microscope. HADA signal was detected using DAPI filter set (Excitation 395/25 nm; emission 435/26 nm). HADA intensity was analyzed using ImageJ and MicrobeJ plug-in.

[2] = tested on: gram-positive bacteria, such as MRSA; conditions: against gram-positive bacteria; cited from earlier work
[3] = tested on: FtsZ/FtsA/PBP2B localization in B. subtilis; assay: Imaging of fluorescently labeled FtsZ, FtsA and PBP2B (mNeonGreen); format: cell-based, Bacillus subtilis; conditions: for localization of FtsZ: B. Subtilis, concentration not given; for localization of FtsZ, FtsA and PBP2B: B. subtilis, FIG. 7D; for localization of fluorescently labeled FtsZ (mNeonG): 10 μM (5×MIC), high-resolution microscopy
Description: B. subtilis strains with fluorescent protein fusion were made (FtsZ-mNeonGreen: bAB185, FtsA-mNeonGreen: bAB167, PBP2B-mNeonGreen: bAB109). Exponentially growing cells for the experiments were prepared as described above. Antibiotic stock solutions were added to 0.3 ml exponentially growing cell cultures to a final concentration of 5×MIC. The cells were incubated at 37° C. for 5 minutes and then immediately imaged using the Ti-E microscope without fixation. mNeonGreen signal was detected using FITC filter set (Excitation 470/24 nm; emission 510/40 nm). Image processing was performed in ImageJ. Images were scaled without interpolation, cropped and rotated. Linear adjustment was performed to optimize contrast and brightness of the images. All the images from the same experiment were processed in the same way in order to ensure fair comparison.

[4] = tested on: VRE, vancomycin-resistant E. faecalis (ATCC 51299); assay: Minimum inhibitory concentration, broth microdilution (CLSI); format: cell-based, Enterococcus faecalis; conditions: for MIC50: Enterococcus
Description: (§1) Chemicals-FtsZ inhibitor PC190723 and ampicllin were purchased from Millipore Sigma Aldrich (St. Louis, MO). Chrysophaentin A was obtained from a 2017 collection of the marine alga C. taylorii collected in the U.S. Virgin Islands (Permit VIIS-2017-SCI-0034) and isolated as described previously. All bacterial strains used for drug susceptibility testing were obtained from the American Type Culture Collection (Manassas, VA) and included Escherichia coli (ATCC 25922), Enterococcus faecalis (ATCC 29212), vancomycin-resistant E. faecalis (VRE, ATCC 51299), Staphylococcus aureus (ATCC 25913), and methicillin-resistant S. aureus (MRSA, ATCC 43300). Strains were maintained on agar slants at 4° C. and sub-cultured on fresh agar plates containing ATCC-recommended media. Strains were cultured in liquid media 16 h prior to any antimicrobial screen. BD BBL™ Mueller-Hinton II broth (Fisher Scientific, Hampton NH) was used for MIC determinations.
(§2) MICs for all compounds were determined using the CLSI guidelines on the test strains. Solutions of each compound were prepared by dissolution in DMSO (Sigma Aldrich, St. Louis MO) at a concentration of 10-20 mg mL^−1. […] Stock solutions were added to Mueller-Hinton II broth and serial two-fold dilutions were prepared in a 96-well microtiter plate (50 μL per well). Fifty microliters (50 μL) of inoculum containing 1×10^6 CFU mL^−1 for E. coli, S. aureus, or MRSA, or 2×10^6 CFU mL^−1 for E. faecalis or VRE were added to the wells. Plates were covered with a sterile membrane, placed in a plate reader, and agitated for 2 min to mix the contents of the wells. Plates were incubated at 37° C. for 16 h. Wells containing 4% DMSO or gentamycin served as negative and positive controls. […] Each assay was performed in triplicate and two independent experiments were carried out on separate days.

[5] = tested on: MRSA, methicillin-resistant S. aureus (ATCC 43300); assay: as above; format: cell-based, Staphylococcus aureus; conditions: for MIC50: Staphylococcus aureus
Description: as §1, §2

[6] = tested on: S. aureus (ATCC 25913); assay: as above; format: cell-based, Staphylococcus aureus; conditions: for MIC50: Staphylococcus aureus, ATCC25913
Description: as §1, §2

[7] = tested on: Enterococcus faecalis (ATCC 29212); assay: as above; format: cell-based; conditions: for MIC50: Enterococcus faecalis, ATCC29212, read-out: MIC50 E. Faecalis
Description: as §1, §2

[8] = tested on: S. aureus ATCC 25293; assay: Agar diffusion assay; format: cell-based, Staphylococcus aureus
Description: (§3) VU0848355 and VU0848354 were evaluated for growth inhibition against S. aureus and inhibition of GTPase activity against S. aureus FtsZ using a biochemical assay (FIGS. 6A-6C).

[9] = tested on: Bacillus subtilis (PY79 WT); assay: Cell lengthening assay; format: cell-based; conditions: for cell lengthening phenotype: B. subtilis, FIG. 7A, concentration not given; for cell lengthening: B. Subtilis
Description: Bacillus subtilis (PY79 WT, lab stock) were inoculated from an overnight plate culture (single colony) to 3 ml LB in 15 ml culture tubes. The cultures were incubated in a 37° C. shaker until OD600 reached 0.2. The cultures were then diluted with fresh LB to OD600 0.05, followed by another round of incubation to OD600 0.2. At this point, cells have reached exponentially growing states and were used for experiments. […] The cultures were incubated at a 37° C. shaker for 40 minutes, followed by direct addition of 0.7 ml 100% ethanol (70% final ethanol concentration) and then incubation on ice-bath for 1 hour. The fixed cells were imaged using a Nikon Ti-E inverted microscope equipped with a 1.4NA Plan Apo 60X oil objective and Andor iXon EMCCD camera. Cell images were captured under phase-to-contrast channel. Cell length was analyzed using ImageJ and MicrobeJ plug-in.

[10] = tested on: S. aureus ATCC 25293; assay: Microbroth dilution growth inhibition; format: cell-based; conditions: Staphylococcus aureus, ATCC25293; S. aureus ATCC 25293, microbroth dilution
Description: as §3

[11] = molecular target: T1, S. aureus FtsZ (Staphylococcus aureus, UniProt P0A031); assay: Biochemical GTPase-FtsZ inhibition assay
T1 sequence (P0A031 1-390): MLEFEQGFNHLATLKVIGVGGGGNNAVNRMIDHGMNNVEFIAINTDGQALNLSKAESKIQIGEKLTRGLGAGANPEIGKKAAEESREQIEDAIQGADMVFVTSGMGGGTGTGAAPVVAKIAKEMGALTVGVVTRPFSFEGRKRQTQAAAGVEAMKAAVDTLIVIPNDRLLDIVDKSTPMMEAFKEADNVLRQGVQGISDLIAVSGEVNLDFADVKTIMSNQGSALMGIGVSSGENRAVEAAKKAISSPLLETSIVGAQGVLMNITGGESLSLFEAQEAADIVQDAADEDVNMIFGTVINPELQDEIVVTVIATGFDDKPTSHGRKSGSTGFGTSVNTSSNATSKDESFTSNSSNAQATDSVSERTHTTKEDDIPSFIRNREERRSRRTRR
Description: as §3

[12] = tested on: Gram-positive pathogens; assay: Comparison of bacterial growth inhibition across panel; format: cell-based; conditions: for potency in inhibiting bacterial growth relative to natural C-ring isomers VU0849855 and VU0848355: FIGS. 5A-5C
Description: as §2
The bacterial growth inhibition of synthetic 9-dechlorochrysophaentins compared favorably to chrysophaentin A when evaluated across a panel of Gram-positive pathogens (Table 1).

[13] = tested on: B. Subtilis; assay: Time-lapse microscopy of FtsZ motion; format: cell-based, Bacillus subtilis; conditions: 5×MIC
Description: Time-lapse microscopy was employed to monitor the dynamics of FtsZ motion before and after treatment by these compounds. FtsZ movement drives the septal peptidoglycan synthesis machinery in B. subtilis. The movement is carried out by a “treadmilling process” where FtsZ monomer polymerizes at one end and disassembles at the other. FtsZ polymerization is triggered by binding to GTP while its disassembly is catalyzed by GTP hydrolysis to GDP.

[14] = tested on: B. Subtilis; assay: Minimum inhibitory concentration; format: cell-based; conditions: Bacillus subtilis; read-out: MIC50 B. Subtifis

CC1(C)S[C@@H]2[C@H](NC(=O)[C@H](N)c3ccccc3)C(=O)N2[C@H]1C(=O)O [Ampicillin, ampicillin, reference compound]
inhibition of peptidoglycan synthesis (FDAA incorporation) [1]: inhibit peptidoglycan synthesis

chrysophaentin A [reference compound]
MIC50 [2]: 1 to 4 µM
localization of FtsZ [3]: leads to dispersion of FtsZ; also recorded: replicated the FtsZ dispersion phenotype
localization of FtsZ, FtsA and PBP2B [3]: led to dispersion of the septal peptidoglycan synthesis machinery
MIC50 VRE [4]: 2 µg/mL
MIC50 MRSA [5]: 2 µg/mL
MIC50 S. Aureus [6]: 2 µg/mL
MIC50 E. Faecalis [7]: 2 µg/mL

COc1cc2cc(OC)c1Oc1cc(c(O)cc1Cl)C/C=C\Cc1cc(O)cc(O)c1Oc1cc(c(O)cc1Cl)C/C=C(/Cl)C2 [VU0848355]
growth inhibition, agar diffusion [8]: inhibited growth of S. aureus
cell lengthening phenotype [9]: neither VU0848355 and VU0848354 replicates the cell lengthening phenotype
IC50 [10]: < 1 µM
localization of FtsZ, FtsA and PBP2B [3]: displace FtsZ/A and penicillin binding protein PBP2B; also recorded: unique dispersion of FtsZ, FtsA and PBP2B
IC50 [11]: > 250 µM
inhibition of peptidoglycan synthesis (FDAA incorporation) [1]: inhibit peptidoglycan synthesis; also recorded: inhibited both lateral and septal peptidoglycan synthesis

COc1cc2cc(OC)c1Oc1cc(c(O)cc1Cl)C/C=C\Cc1cc(O)cc(O)c1Oc1ccc(O)c(c1Cl)C/C=C(/Cl)C2 [VU0848354]
growth inhibition, agar diffusion [8]: inhibited growth of S. aureus
cell lengthening phenotype [9]: neither VU0848355 and VU0848354 replicates the cell lengthening phenotype
IC50 [10]: < 1 µM
localization of FtsZ, FtsA and PBP2B [3]: displace FtsZ/A and penicillin binding protein PBP2B; also recorded: unique dispersion of FtsZ, FtsA and PBP2B
potency in inhibiting bacterial growth relative to natural C-ring isomers VU0849855 and VU0848355 [12]: approximately two-fold
IC50 ([11]; S. aureus FtsZ biochemical assay, read-out: IC50 GTPase-FtsZ inhibition): > 250 µM
cell elongation [13]: did not elongate
inhibition of peptidoglycan synthesis (FDAA incorporation) [1]: inhibit peptidoglycan synthesis; also recorded: inhibited both lateral and septal peptidoglycan synthesis

Oc1cc(O)c2c(c1)C/C=C\Cc1cc(c(Cl)cc1O)Oc1c(O)cc(cc1O)C/C(Cl)=C\Cc1c(O)ccc(c1Cl)O2 [VU0849838, iso-9-dechlorochrysophaentin A]
cell lengthening ([9]; up to 20 μM (10×MIC)): did not affect cell lengthening
localization of fluorescently labeled FtsZ (mNeonG) [3]: complete disassociation of FtsZ
localization of FtsZ [3]: lead to dislocation of FtsZ
MIC50 [14]: 2 µg/mL (≈ 3.11 µM)
potency in inhibiting bacterial growth relative to natural C-ring isomers VU0849855 and VU0848355 [12]: approximately two-fold
growth inhibition (MIC) relative to natural chrysophaentin A ([12]; S. aureus, MRSA and E. faecalis): approximately two-fold
MIC50 [4]: 2.2 µg/mL (≈ 3.42 µM)
MIC50 [5]: 1.1 µg/mL (≈ 1.71 µM)
MIC50 [6]: 1.1 µg/mL (≈ 1.71 µM)
inhibition of FDAA incorporation ([1]; 10 μM (5×MIC)): inhibited incorporation of FDAAs
MIC50 [7]: 0.3 µg/mL (≈ 0.466 µM)

Oc1cc(O)c2c(c1)C/C=C\Cc1cc(c(Cl)cc1O)Oc1c(O)cc(cc1O)C/C(Cl)=C\Cc1cc(c(Cl)cc1O)O2 [VU0849855, 9-dechlorochrysophaentin A]
cell lengthening ([9]; up to 20 μM (10×MIC)): did not affect cell lengthening
localization of fluorescently labeled FtsZ (mNeonG) [3]: complete disassociation of FtsZ
localization of FtsZ [3]: lead to dislocation of FtsZ
MIC50 [14]: 4 µg/mL (≈ 6.21 µM)
MIC50 [4]: 5 µg/mL (≈ 7.77 µM)
MIC50 [5]: 2.5 µg/mL (≈ 3.88 µM)
MIC50 [6]: 2.5 µg/mL (≈ 3.88 µM)
inhibition of FDAA incorporation ([1]; 10 μM (5×MIC)): inhibited incorporation of FDAAs
MIC50 [7]: 2.5 µg/mL (≈ 3.88 µM)

NC(=O)c1c(F)ccc(OCc2nc3cc(Cl)cnc3s2)c1F [PC190723, reference compound]
cell lengthening ([9]; 5 μg/mL (10×MIC)): Cell lengthening was observed
cell lengthening phenotype [9]: produces the expected cell lengthening phenotype
cell lengthening phenotype ([9]; listed as PC1907723): leads to expected cell lengthening
localization of FtsZ [3]: dislocation but retention of FtsZ
inhibition of peptidoglycan synthesis (FDAA incorporation) [1]: does not
inhibition of FDAA incorporation ([1]; up to 10×MIC): minimal inhibition of FDAAs incorporation
